Experiments:
[1] = test system: MIA PaCa-2; assay: Growth inhibition of human MIAPaCa2 cells at 100 uM by MTT assay relative to control; format: functional; details: read-out: GI
[2] = target: Glycogen synthase kinase-3 (Sus scrofa, UniProt B2LUN4+I6LNT8); assay: Inhibition of porcine brain GSK-3 alpha/beta using YRRAAVPPSPSLSRHSSPHQpSEDEEE as substrate after 30 mins in presence of ATP by scintillation counting method
[3] = test system: HCT-15; assay: Cytotoxicity against human HCT15 cells by MTT assay; format: functional, cell-based
[4] = target: Glycogen synthase kinase-3 (Sus scrofa) (UniProt B2LUN4+I6LNT8); assay: Inhibition of porcine brain GSK-3 alpha/beta at 10 uM using YRRAAVPPSPSLSRHSSPHQpSEDEEE as substrate after 30 mins in presence of ATP by scintillation counting method relative to control
[5] = test system: PANC-1; assay: Cytotoxicity against human PANC1 cells by MTT assay; format: functional, cell-based
[6] = test system: BT-20; assay: Growth inhibition of human BT20 cells at 100 uM by MTT assay relative to control; format: functional; details: read-out: GI
[7] = Inhibition of M-phase starfish oocytes CDK1/cyclin B using histone H1 as substrate after 30 mins in presence of ATP by scintillation counting method; parameters: species or system Asteroidea
[8] = test system: ZR-75-1; assay: Growth inhibition of human ZR-75-1 cells at 100 uM by MTT assay relative to control; format: functional; details: read-out: GI
[9] = test system: A549; assay: Growth inhibition of human A549 cells at 100 uM by MTT assay relative to control; format: functional; details: read-out: GI
[10] = test system: A549; assay: Cytotoxicity against human A549 cells by MTT assay; format: functional, cell-based
[11] = test system: DU-145; assay: Growth inhibition of human DU145 cells at 100 uM by MTT assay relative to control; format: functional; details: read-out: GI
[12] = target: CDK9/cyclin T1 (Homo sapiens) (UniProt O60563+P50750); assay: Inhibition of recombinant human CDK9/cyclin T expressed in insect cells at 10 uM using YSPTSPSYSPTSPSYSPTSPSKKKK as substrate after 30 mins in presence of ATP by scintillation counting method relative to control
[13] = test system: HCT-15; assay: Growth inhibition of human HCT15 cells at 100 uM by MTT assay relative to control; format: functional; details: read-out: GI
[14] = test system: ZR-75-30; assay: Growth inhibition of human ZR-7530 cells at 100 uM by MTT assay relative to control; format: functional; details: read-out: GI
[15] = test system: MCF7; assay: Cytotoxicity against human MCF7 cells by MTT assay; format: functional, cell-based
[16] = test system: PANC-1; assay: Growth inhibition of human PANC1 cells at 100 uM by MTT assay relative to control; format: functional; details: read-out: GI
[17] = Inhibition of porcine brain CK1-delta/epsilon using CSK peptide as substrate after 30 mins in presence of ATP by scintillation counting method; parameters: species or system Sus scrofa
[18] = test system: HEK293; assay: Cytotoxicity against HEK293 cells by MTT assay; format: cell-based; details: Homo sapiens
[19] = target: Dual specificity protein kinase CLK1 (Mus musculus) (UniProt P22518); assay: Inhibition of recombinant mouse GST-fused CLK1 expressed in Escherichia coli at 10 uM using RS peptide as substrate after 30 mins in presence of ATP by scintillation counting method relative to control
Chain of Dual specificity protein kinase CLK1 (Mus musculus) (P22518 whole entry, looked up, the tested form may be a part): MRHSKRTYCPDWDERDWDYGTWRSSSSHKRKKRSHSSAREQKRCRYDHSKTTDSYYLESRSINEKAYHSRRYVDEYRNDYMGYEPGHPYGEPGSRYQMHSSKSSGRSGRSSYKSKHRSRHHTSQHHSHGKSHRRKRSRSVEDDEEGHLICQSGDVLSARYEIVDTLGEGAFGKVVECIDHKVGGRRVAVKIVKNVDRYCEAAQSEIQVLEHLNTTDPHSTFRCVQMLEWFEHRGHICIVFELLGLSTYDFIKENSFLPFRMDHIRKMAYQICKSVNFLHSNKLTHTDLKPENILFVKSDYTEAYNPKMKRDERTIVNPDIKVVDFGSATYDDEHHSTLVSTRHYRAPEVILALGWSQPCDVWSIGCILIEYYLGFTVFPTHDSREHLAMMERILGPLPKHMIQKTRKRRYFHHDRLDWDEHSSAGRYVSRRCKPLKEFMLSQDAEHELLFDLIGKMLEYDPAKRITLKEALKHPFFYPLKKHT

[20] = test system: MDA-MB-468; assay: Growth inhibition of human MDA-MB-468 cells at 100 uM by MTT assay relative to control; format: functional; details: read-out: GI
[21] = test system: MCF7; assay: Growth inhibition of human MCF7 cells at 100 uM by MTT assay relative to control; format: functional; details: read-out: GI
[22] = test system: MDA-MB-231; assay: Cytotoxicity against human MDA-MB-231 cells by MTT assay; format: functional, cell-based
[23] = test system: ZR-75-30; assay: Cytotoxicity against human ZR-7530 cells by MTT assay; format: functional, cell-based
[24] = test system: ZR-75-1; assay: Cytotoxicity against human ZR-75-1 cells by MTT assay; format: functional, cell-based
[25] = target: Dual specificity protein kinase CLK1 (Mus musculus, UniProt P22518); assay: Inhibition of recombinant mouse GST-fused CLK1 expressed in Escherichia coli using RS peptide as substrate after 30 mins in presence of ATP by scintillation counting method
Chain of Dual specificity protein kinase CLK1 (P22518 whole entry, the tested form may be a part): as the sequence (P22518 whole entry, looked up, the tested form may be a part) above

[26] = target: CDK2/Cyclin A2 (Homo sapiens) (UniProt P24941+P20248); assay: Inhibition of recombinant human CDK2/cyclin A at 10 uM using histone H1 as substrate after 30 mins in presence of ATP by scintillation counting method relative to control; format: protein-complex assay
[27] = test system: Asteroidea; assay: Inhibition of M-phase starfish oocytes CDK1/cyclin B at 10 uM using histone H1 as substrate after 30 mins in presence of ATP by scintillation counting method relative to control
[28] = Growth inhibition of HEK293 cells at 100 uM by MTT assay relative to control; format: cell-based; details: human, read-out: GI
[29] = test system: MDA-MB-231; assay: Growth inhibition of human MDA-MB-231 cells at 100 uM by MTT assay relative to control; format: functional; details: read-out: GI
[30] = target: Cyclin-dependent kinase 5/CDK5 activator 1 (Homo sapiens) (UniProt Q00535+Q15078); assay: Inhibition of recombinant human CDK5/p25 expressed in Escherichia coli at 10 uM using histone H1 as substrate after 30 mins in presence of ATP by scintillation counting method relative to control
Chain of Cyclin-dependent kinase 5/CDK5 activator 1 (Homo sapiens) (Q00535 whole entry, the tested form may be a part): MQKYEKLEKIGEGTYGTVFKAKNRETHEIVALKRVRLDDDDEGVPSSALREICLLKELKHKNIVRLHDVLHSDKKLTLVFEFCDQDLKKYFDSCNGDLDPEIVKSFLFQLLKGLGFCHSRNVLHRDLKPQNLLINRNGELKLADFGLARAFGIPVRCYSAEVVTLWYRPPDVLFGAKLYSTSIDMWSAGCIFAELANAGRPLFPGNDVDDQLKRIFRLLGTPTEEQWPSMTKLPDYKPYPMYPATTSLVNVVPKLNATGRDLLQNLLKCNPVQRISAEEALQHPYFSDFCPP
Chain of Cyclin-dependent kinase 5/CDK5 activator 1 (Homo sapiens) (Q15078 99-307 partner limits assumed): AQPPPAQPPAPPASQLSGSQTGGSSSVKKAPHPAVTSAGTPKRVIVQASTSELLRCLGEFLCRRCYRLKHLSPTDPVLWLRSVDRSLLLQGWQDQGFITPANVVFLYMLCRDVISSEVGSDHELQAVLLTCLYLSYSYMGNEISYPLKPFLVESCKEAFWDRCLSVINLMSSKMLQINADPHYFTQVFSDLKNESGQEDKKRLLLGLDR

[31] = target: Dual specificity tyrosine-phosphorylation-regulated kinase 1A (Homo sapiens) (UniProt Q13627); assay: Inhibition of recombinant full length human GST-fused DYRK1A expressed in Escherichia coli at 10 uM using RS peptide as substrate after 30 mins in presence of ATP by scintillation counting method relative to control
[32] = species: Sus scrofa; assay: Inhibition of porcine brain CK1-delta/epsilon at 10 uM using CSK peptide as substrate after 30 mins in presence of ATP by scintillation counting method relative to control
[33] = test system: MDA-MB-468; assay: Cytotoxicity against human MDA-MB-468 cells by MTT assay; format: functional, cell-based
[34] = test system: MIA PaCa-2; assay: Cytotoxicity against human MIAPaCa2 cells by MTT assay; format: functional, cell-based
[35] = test system: BT-20; assay: Cytotoxicity against human BT20 cells by MTT assay; format: functional, cell-based
[36] = target: CDK2/Cyclin A2 (Homo sapiens, UniProt P24941); assay: Inhibition of recombinant human CDK2/cyclin A using histone H1 as substrate after 30 mins in presence of ATP by scintillation counting method; format: protein-complex assay

SMILES | inhibition of growth at 100 µM [1] | IC50 [2] | IC50 [3] | inhibition [4] | IC50 [5] | inhibition of growth at 100 µM [6] | IC50 [7] | inhibition of growth at 100 µM [8] | inhibition of growth at 100 µM [9] | IC50 [10] | inhibition of growth at 100 µM [11] | inhibition [12] | inhibition of growth at 100 µM [13] | inhibition of growth at 100 µM [14] | IC50 [15] | inhibition of growth at 100 µM [16] | IC50 [17] | IC50 [18] | inhibition [19] | inhibition of growth at 100 µM [20] | further results
COc1cc2ncnc(Nc3n[nH]cc3C#N)c2cc1OC | > 50% | > 10 µM | > 100 µM | > 50% | > 100 µM | > 50% | > 10 µM | > 50% | > 50% | > 100 µM | > 50% | > 50% | > 50% | > 50% | > 100 µM | > 50% | < 10 µM | > 100 µM | > 50% | > 50% | inhibition of growth at 100 µM [21]: > 50%; IC50 [22]: > 100 µM; IC50 [23]: > 100 µM; IC50 [24]: > 100 µM; IC50 [25]: > 10 µM; inhibition [26]: > 50%; inhibition [27]: > 50%; inhibition at 100 µM [28]: > 50%; inhibition of growth at 100 µM [29]: > 50%; inhibition [30]: > 50%; inhibition [31]: > 50%; inhibition [32]: > 50%; IC50 [33]: > 100 µM; IC50 [34]: > 100 µM; IC50 [35]: > 100 µM; IC50 [36]: > 10 µM
COc1cc2ncnc(Nc3cc(-c4ccccc4)[nH]n3)c2cc1OC | > 50% | > 10 µM | > 100 µM | > 50% | 9.3 µM | > 50% | > 10 µM | > 50% | > 50% | 29.7 µM | > 50% | > 50% | > 50% | > 50% | > 100 µM | > 50% | 1.6 µM | 71.1 µM | > 50% | > 50% | inhibition of growth at 100 µM [21]: > 50%; IC50 [22]: > 100 µM; IC50 [23]: > 100 µM; IC50 [24]: > 100 µM; IC50 [25]: > 10 µM; inhibition [26]: > 50%; inhibition [27]: > 50%; inhibition at 100 µM [28]: > 50%; inhibition of growth at 100 µM [29]: > 50%; inhibition [30]: > 50%; inhibition [31]: > 50%; inhibition [32]: > 50%; IC50 [33]: > 100 µM; IC50 [34]: > 100 µM; IC50 [35]: > 100 µM; IC50 [36]: > 10 µM
COc1cc2ncnc(Nc3cc(-c4ccc(Cl)cc4)[nH]n3)c2cc1OC | > 50% | > 10 µM | 98.2 µM | > 50% | > 100 µM | > 50% | > 10 µM | > 50% | > 50% | > 100 µM | > 50% | > 50% | > 50% | > 50% | > 100 µM | > 50% | < 10 µM | 81.2 µM | > 50% | > 50% | inhibition of growth at 100 µM [21]: > 50%; IC50 [22]: < 100 µM; IC50 [23]: 91.5 µM; IC50 [24]: > 100 µM; IC50 [25]: > 10 µM; inhibition [26]: > 50%; inhibition [27]: > 50%; inhibition at 100 µM [28]: > 50%; inhibition of growth at 100 µM [29]: > 50%; inhibition [30]: > 50%; inhibition [31]: > 50%; inhibition [32]: > 50%; IC50 [33]: 79.5 µM; IC50 [34]: < 100 µM; IC50 [35]: > 100 µM; IC50 [36]: > 10 µM
